This is an account of results in US11987648B2, “Cyclohexapeptides as selective somatostatin SST5 receptor agonists” (Heptares Therapeutics Limited, priority 2018, dated 2024).

*1 amine or outer side, *2 acyl side, *3 side chain or, on linkers, in order; H or OH if unused. Where a SMILES comes first, the peptide text is derived from it. Side-chain parts run from the residue outwards. [ ]: non-standard residue; d: D form. The star is where a group is joined. Ala(piperidin-4-yl) = O=C([C@H](CC1CCN([*:3])CC1)N[*:1])[*:2]; dTrp(4-OMe) = COc1cccc2[nH]cc(C[C@@H](N)C(=O)O)c12; dTrp(5-OMe) = COc1ccc2[nH]cc(C[C@@H](N)C(=O)O)c2c1; Ala(piperazin-1-yl) = N[C@@H](CN1CCNCC1)C(=O)O; Phe(3-Cl) = N[C@@H](Cc1cccc(Cl)c1)C(=O)O; Phe(4-Cl) = N[C@@H](Cc1ccc(Cl)cc1)C(=O)O; Morpholine(3S-CO) = O=C(O)[C@@H]1COCCN1; Ethylenediamine = C(CN[*:2])N[*:1]; d(hPhe) = N[C@H](CCc1ccccc1)C(=O)O; Hyp = O=C(O)[C@@H]1C[C@@H](O)CN1; hPhe = N[C@@H](CCc1ccccc1)C(=O)O; 3Pal = N[C@@H](Cc1cccnc1)C(=O)O; Cyclohexylmethyl = C1CCC(C*)CC1; Tic = O=C(O)[C@@H]1Cc2ccccc2CN1; Benzyl(4-Cl) = Clc1ccc(C*)cc1; X6 = Clc1cccc(Cl)c1C*; CO = O=C([*:1])[*:2]; Bn = c1ccc(C*)cc1; X1 = C1CCC(C*)C1; X4 = C1CC(C*)C1

In one experiment the target is SST2 (Homo sapiens, UniProt P30874). In words: Hit Hunter cAMP XS+ assay, SST2 activation via Gi (reduction of forskolin-stimulated cAMP). Type of experiment: cell-based. As to conditions: for Emax: read-out: SST2 (EMax); for EC50: reduction of forskolin-stimulated cAMP, 4-parameter logistic fit, read-out: SST2 pEC50 (converted). In short, it runs like this: (§1)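 Cells (10,000/well) incubated 30 min at 37 °C with compound under EC80 forskolin ([…] for SST2, 15 μM for SST5). cAMP reduction was detected by enzyme-fragment complementation chemiluminescence after 60 min and 180 min room-temperature reagent steps. Potency and efficacy were both measured.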
SST2, sequence (P30874 whole entry, the tested form may be a part): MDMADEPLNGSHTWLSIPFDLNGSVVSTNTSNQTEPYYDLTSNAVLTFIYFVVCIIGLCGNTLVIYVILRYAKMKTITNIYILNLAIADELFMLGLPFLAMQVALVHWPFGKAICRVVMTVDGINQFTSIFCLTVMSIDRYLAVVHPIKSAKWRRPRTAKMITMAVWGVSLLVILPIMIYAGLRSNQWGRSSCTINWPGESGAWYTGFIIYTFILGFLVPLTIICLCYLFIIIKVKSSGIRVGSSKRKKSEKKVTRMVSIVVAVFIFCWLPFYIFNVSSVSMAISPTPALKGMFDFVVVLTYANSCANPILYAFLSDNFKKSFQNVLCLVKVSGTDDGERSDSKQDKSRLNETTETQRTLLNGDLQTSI

The next experiment addresses SST5 (Homo sapiens, UniProt P35346). Briefly: Hit Hunter cAMP XS+ assay, SST5 activation via Gi (reduction of forskolin-stimulated cAMP). As to conditions: for Emax: read-out: SST5 (EMax); for EC50: reduction of forskolin-stimulated cAMP, 4-parameter logistic fit, read-out: SST5 pEC50 (converted); for SST5/2 Selectivity: selectivity for SST5 over SST2. Type of experiment: cell-based. In short, it runs like this: as §1

SST5, sequence (P35346 whole entry): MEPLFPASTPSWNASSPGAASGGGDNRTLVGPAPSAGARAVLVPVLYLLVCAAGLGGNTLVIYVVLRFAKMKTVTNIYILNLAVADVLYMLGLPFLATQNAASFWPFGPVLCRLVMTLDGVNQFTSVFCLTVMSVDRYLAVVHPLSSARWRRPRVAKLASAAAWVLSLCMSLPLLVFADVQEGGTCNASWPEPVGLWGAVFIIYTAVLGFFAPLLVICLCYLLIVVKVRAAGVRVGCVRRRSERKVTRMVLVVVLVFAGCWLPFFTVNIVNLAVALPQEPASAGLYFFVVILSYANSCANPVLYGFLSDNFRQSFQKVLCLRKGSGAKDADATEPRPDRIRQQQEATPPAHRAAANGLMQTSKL

Usually Emax stands for the size of the effect at its maximum, as opposed to the concentration needed. For the compound `COc1ccc2[nH]cc(C[C@H]3NC(=O)[C@H](CCc4ccccc4)NC(=O)[C@@H]4C[C@@H](OC(=O)NCCN)CN4C(=O)[C@H](Cc4cccnc4)NC(=O)[C@H](Cc4ccc(OCc5ccccc5)cc4)NC(=O)[C@H](CC4CCNCC4)NC3=O)c2c1` [Example 39] (cyclo([3Pal][Hyp]([CO-Ethylenediamine])[hPhe][dTrp(5-OMe)][Ala(piperidin-4-yl)]Y(Bn))), at SST2, the Emax is 100% and the EC50 was 398 nM. Also, on SST5, the Emax amounted to 107%, the EC50 was 0.398 nM and the “SST5/2 Selectivity” value turned out to be 1104.6.
Consider `NCCNC(=O)O[C@@H]1C[C@H]2C(=O)N[C@@H](CCc3ccccc3)C(=O)N[C@H](Cc3c[nH]c4ccccc34)C(=O)N[C@@H](CC3CCNCC3)C(=O)N[C@@H](Cc3ccc(OCc4ccc(Cl)cc4)cc3)C(=O)N[C@@H](Cc3cccnc3)C(=O)N2C1` [Example 40] (cyclo([3Pal][Hyp]([CO-Ethylenediamine])[hPhe][dW][Ala(piperidin-4-yl)]Y(Benzyl(4-Cl)))), for which, at SST2, the Emax was determined as 91.2% and the EC50 was 316 nM. On SST5, the Emax amounted to 106%, the EC50 is 2.51 nM and the “SST5/2 Selectivity” value is recorded as 126.6.
For `NCCNC(=O)O[C@@H]1C[C@H]2C(=O)N[C@@H](CCc3ccccc3)C(=O)N[C@H](Cc3c[nH]c4ccccc34)C(=O)N[C@@H](CC3CCNCC3)C(=O)N[C@@H](Cc3ccc(OCc4ccccc4)cc3)C(=O)N[C@@H](Cc3cccc(Cl)c3)C(=O)N2C1` [Example 41] (cyclo([Hyp]([CO-Ethylenediamine])[hPhe][dW][Ala(piperidin-4-yl)]Y(Bn)[Phe(3-Cl)])), in that order: 102%, 7.94 nM, 104%, 0.158 nM and 51.0.
`NCCNC(=O)O[C@@H]1C[C@H]2C(=O)N[C@@H](CCc3ccccc3)C(=O)N[C@H](Cc3c[nH]c4ccccc34)C(=O)N[C@@H](CC3CCNCC3)C(=O)N[C@@H](Cc3ccc(OCc4ccccc4)cc3)C(=O)N[C@@H](Cc3ccc(Cl)cc3)C(=O)N2C1` [Example 42] (cyclo([Hyp]([CO-Ethylenediamine])[hPhe][dW][Ala(piperidin-4-yl)]Y(Bn)[Phe(4-Cl)])): on SST2, the Emax was determined as 99.3% and the EC50 is 12.6 nM. Further, on SST5, the maximum response (Emax) worked out at 104%, the EC50 was 0.251 nM and the “SST5/2 Selectivity” value is 45.1.
Turning to `COc1ccc(C[C@@H]2NC(=O)[C@H](Cc3ccc(OCc4ccccc4)cc3)NC(=O)[C@H](CC3CCNCC3)NC(=O)[C@@H](Cc3c[nH]c4ccccc34)NC(=O)[C@H](CCc3ccccc3)NC(=O)[C@@H]3C[C@@H](OC(=O)NCCN)CN3C2=O)cc1` [Example 43] (cyclo([Hyp]([CO-Ethylenediamine])[hPhe][dW][Ala(piperidin-4-yl)]Y(Bn)Y(Me))), on SST2, the Emax worked out at 101% and the EC50 is 31.6 nM. For the same compound, on SST5, the Emax worked out at 107%, the EC50 is 0.316 nM and the “SST5/2 Selectivity” value stood at 94.3.
Consider `NCCNC(=O)O[C@@H]1C[C@H]2C(=O)N[C@@H](CCc3ccccc3)C(=O)N[C@H](Cc3c[nH]c4ccccc34)C(=O)N[C@@H](CC3CCNCC3)C(=O)N[C@@H](Cc3ccc(OCC4CCCCC4)cc3)C(=O)N3Cc4ccccc4C[C@H]3C(=O)N2C1` [Example 44] (cyclo([Hyp]([CO-Ethylenediamine])[hPhe][dW][Ala(piperidin-4-yl)]Y(Cyclohexylmethyl)[Tic])), for which, on SST2, the Emax is 75.3% and the EC50 was 794 nM. Further, at SST5, the Emax is 105%, the EC50 is 1 nM and the “SST5/2 Selectivity” value was 823.8.
Take `O=C1N[C@@H](Cc2ccc(OCc3ccccc3)cc2)C(=O)N2Cc3ccccc3C[C@H]2C(=O)N2CCOC[C@H]2C(=O)N[C@@H](CCc2ccccc2)C(=O)N[C@H](Cc2c[nH]c3ccccc23)C(=O)N[C@H]1CC1CCNCC1` [Example 45] (cyclo([Tic][Morpholine(3S-CO)][hPhe][dW][Ala(piperidin-4-yl)]Y(Bn))): on SST2, the Emax worked out at 100% and the EC50 was 158 nM. Besides, on SST5, the maximal response (Emax) amounted to 100%, the EC50 was 0.398 nM and the “SST5/2 Selectivity” value was determined as 430.7.
For the compound `COc1cccc2[nH]cc(C[C@H]3NC(=O)[C@H](CCc4ccccc4)NC(=O)[C@@H]4COCCN4C(=O)[C@@H]4Cc5ccccc5CN4C(=O)[C@H](Cc4ccc(OCc5ccccc5)cc4)NC(=O)[C@H](CC4CCNCC4)NC3=O)c12` [Example 46] (cyclo([Tic][Morpholine(3S-CO)][hPhe][dTrp(4-OMe)][Ala(piperidin-4-yl)]Y(Bn))), at SST2, the maximal response (Emax) came to 98.6% and the EC50 was 39.8 nM. In addition, at SST5, the Emax amounted to 102%, the EC50 was 0.0794 nM and the “SST5/2 Selectivity” value came to 527.6.
Regarding `NCCNC(=O)O[C@@H]1C[C@H]2C(=O)N[C@@H](CCc3ccccc3)C(=O)N[C@H](Cc3c[nH]c4ccccc34)C(=O)N[C@@H](CC3CCNCC3)C(=O)N[C@@H](Cc3ccc(OCc4c(Cl)cccc4Cl)cc3)C(=O)N[C@@H](Cc3cccnc3)C(=O)N2C1` [Example 47] (cyclo([3Pal][Hyp]([CO-Ethylenediamine])[hPhe][dW][Ala(piperidin-4-yl)]Y(X6))), on SST2, the maximal effect (Emax) came to 100% and the EC50 was 200 nM. Moreover, at SST5, the Emax was found to be 108%, the EC50 was 0.794 nM and the “SST5/2 Selectivity” value is on record as 226.4.
Take `NCCNC(=O)O[C@@H]1C[C@H]2C(=O)N[C@@H](CCc3ccccc3)C(=O)N[C@H](Cc3c[nH]c4ccccc34)C(=O)N[C@@H](CN3CCNCC3)C(=O)N[C@@H](Cc3ccc(OCc4ccccc4)cc3)C(=O)N[C@@H](Cc3cccc(Cl)c3)C(=O)N2C1` [Example 48] (cyclo([Hyp]([CO-Ethylenediamine])[hPhe][dW][Ala(piperazin-1-yl)]Y(Bn)[Phe(3-Cl)])): on SST2, the Emax worked out at 100% and the EC50 was 2 nM. At SST5, the maximum response (Emax) was determined as 103%, the EC50 is 0.02 nM and the “SST5/2 Selectivity” value is listed as 106.6.
The like results for `NCCNC(=O)O[C@@H]1C[C@H]2C(=O)N[C@@H](CCc3ccccc3)C(=O)N[C@H](Cc3c[nH]c4ccccc34)C(=O)N[C@@H](CC3CCNCC3)C(=O)N[C@@H](Cc3ccc(OCC4CCCC4)cc3)C(=O)N[C@@H](Cc3cccnc3)C(=O)N2C1` [Example 49] (cyclo([3Pal][Hyp]([CO-Ethylenediamine])[hPhe][dW][Ala(piperidin-4-yl)]Y(X1))) were, in that order, 98.9%, 501 nM, 103%, 3.16 nM and 143.3.
The like results for `NCCNC(=O)O[C@@H]1C[C@H]2C(=O)N[C@@H](CCc3ccccc3)C(=O)N[C@H](Cc3c[nH]c4ccccc34)C(=O)N[C@@H](CC3CCNCC3)C(=O)N[C@@H](Cc3ccc(OCC4CCC4)cc3)C(=O)N[C@@H](Cc3cccnc3)C(=O)N2C1` [Example 50] (cyclo([3Pal][Hyp]([CO-Ethylenediamine])[hPhe][dW][Ala(piperidin-4-yl)]Y(X4))) were, in that order, 95.4%, 631 nM, 103%, 15.8 nM and 41.1.
For the compound `NCCNC(=O)O[C@@H]1C[C@H]2C(=O)N[C@@H](CCc3ccccc3)C(=O)N[C@H](Cc3c[nH]c4ccccc34)C(=O)N[C@@H](CN3CCNCC3)C(=O)N[C@@H](Cc3ccc(OCc4ccccc4)cc3)C(=O)N[C@@H](Cc3ccc(Cl)cc3)C(=O)N2C1` [Example 51] (cyclo([Hyp]([CO-Ethylenediamine])[hPhe][dW][Ala(piperazin-1-yl)]Y(Bn)[Phe(4-Cl)])), at SST2, the Emax came out at 100% and the EC50 is 5.01 nM. Further, at SST5, the Emax was 106%, the EC50 is 0.0794 nM and the “SST5/2 Selectivity” value is reported as 64.3.
The like results for `NCCNC(=O)O[C@@H]1C[C@H]2C(=O)N[C@@H](CCc3ccccc3)C(=O)N[C@H](Cc3c[nH]c4ccccc34)C(=O)N[C@@H](CN3CCNCC3)C(=O)N[C@@H](Cc3ccc(OCC4CCCCC4)cc3)C(=O)N[C@@H](Cc3cccnc3)C(=O)N2C1` [Example 52] (cyclo([3Pal][Hyp]([CO-Ethylenediamine])[hPhe][dW][Ala(piperazin-1-yl)]Y(Cyclohexylmethyl))) were, in that order, 96.8%, 398 nM, 107%, 0.158 nM and 2108.2.
On to `NCCNC(=O)O[C@@H]1C[C@H]2C(=O)N[C@H](CCc3ccccc3)C(=O)N[C@H](Cc3c[nH]c4ccccc34)C(=O)N[C@@H](CC3CCNCC3)C(=O)N[C@@H](Cc3ccc(OCC4CCCCC4)cc3)C(=O)N[C@@H](Cc3cccnc3)C(=O)N2C1` [Example 53] (cyclo([3Pal][Hyp]([CO-Ethylenediamine])[d(hPhe)][dW][Ala(piperidin-4-yl)]Y(Cyclohexylmethyl))), for which, at SST2, the maximal effect (Emax) came to 50.9% and the EC50 is over 10000 nM. Also, on SST5, the Emax was 103%, the EC50 is 31.6 nM and the “SST5/2 Selectivity” value is given as 293.1.
As to `NCCNC(=O)O[C@@H]1C[C@H]2C(=O)N[C@@H](CCc3ccccc3)C(=O)N[C@H](Cc3c[nH]c4ccccc34)C(=O)N[C@@H](CC3CCNCC3)C(=O)N[C@@H](Cc3ccc(OCC4CCCCC4)cc3)C(=O)N[C@@H](Cc3cccnc3)C(=O)N2C1` [Example 54] (cyclo([3Pal][Hyp]([CO-Ethylenediamine])[hPhe][dW][Ala(piperidin-4-yl)]Y(Cyclohexylmethyl))), on SST2, the Emax worked out at 96.2% and the EC50 is 631 nM. Also, at SST5, the Emax was found to be 104%, the EC50 is 0.501 nM and the “SST5/2 Selectivity” value is reported as 1083.5.
